Test results from patent US10577400B2, “Method of manufacturing recombinant lectin protein and recombinant lectin protein manufactured by using the same” (NATIONAL MARINE BIODIVERSITY INSTITUTE OF KOREA, priority 2017, dated 2020).
Converted amounts (≈) assume the structure as drawn. Where two headings read alike, the source gives them in different places. Marks after values point to notes of the source that are not given here.

Assays:
rD2BPL3 = assay: Inhibition of hemagglutination activity of rD2BPL3 (refolded rBPL3) by sugars; format: cell-based, Bryopsis plumosa; details: for Minimum inhibitory concentration: inhibition of hemagglutination activity of rD2BPL3; for Concentration at which hemagglutination activity of rBPL3 was inhibited: refolded rBPL3, FIG. 8, running text
Experimental: FIG. 8 is a photograph showing that the activity of the refolded rBPL3 is inhibited by N-acetyl D-glucosamine and N-acetyl D-glactosamine. Referring to FIG. 8, experiments on inhibition of hemagglutination activity for 10 kinds of sugars including GlcNAc and GaINAc which inhibited hemagglutination activity of Native BPL3 were conducted.

Native BPL3 = assay: Inhibition of hemagglutination activity of Native BPL3 by sugars; format: cell-based, Bryopsis plumosa
Fetuin = assay: cell-based or functional assay
[1] = Glycan binding specificity, RayBio Glycan Array 100
Experimental: Affinity with glycans was measured using RayBio® Glycan Array 100. The rBPL3 and the Native BPL3 were conjugated with biotin and then dialyzed to remove unreacted biotin.
FIG. 9 is a graph for comparing glycan binding specificities of Native BPL3, rD1BPL3, and rD2BPL3.

[2] = biotin-conjugated lectin, FIG. 9

Q: With `CC(=O)N[C@H]1C(O)O[C@H](CO)[C@@H](O)[C@@H]1O` (stereo partly drawn) [N-acetyl-d-glucosamine] as the molecule, how does the Minimum inhibitory concentration (rD2BPL3) read?
A: 62.5 mM (≈ 13.8 mg/mL)

Q: And the “Concentration at which hemagglutination activity of rBPL3 was inhibited” value (rD2BPL3)?
A: 125 mM

Q: And the Minimum inhibitory concentration (Native BPL3)?
A: 125 mM (≈ 27.7 mg/mL)

Q: Which Minimum inhibitory concentration (rD2BPL3) does the source give for `O=C[C@@H](O)[C@@H](O)[C@H](O)[C@H](O)CO` [d-Mannose] here?
A: NI (the absence of inhibition at 500 mM)

Q: And the Minimum inhibitory concentration (rD2BPL3; listed as α-Man)?
A: not inhibited

Q: What about the Minimum inhibitory concentration (Native BPL3) of the same molecule?
A: NI (the absence of inhibition at 500 mM)

Q: And the Minimum inhibitory concentration (Native BPL3; listed as α-Man)?
A: not inhibited

Q: For `O=C[C@H](O)[C@@H](O)[C@@H](O)[C@H](O)CO` [d-Galactose], which Minimum inhibitory concentration (rD2BPL3) is on record?
A: NI (the absence of inhibition at 500 mM)

Q: And the Minimum inhibitory concentration (Native BPL3)?
A: NI (the absence of inhibition at 500 mM)

Q: Which results are given for `O=C[C@H](O)[C@@H](O)[C@H](O)[C@H](O)CO` [d-Glucose]?
A: Minimum inhibitory concentration (rD2BPL3): NI (the absence of inhibition at 500 mM); Minimum inhibitory concentration (Native BPL3): NI (the absence of inhibition at 500 mM)

Q: What does the source list for `O=C(CO)[C@@H](O)[C@H](O)[C@H](O)CO` [d-Fructose]?
A: Minimum inhibitory concentration (rD2BPL3): NI (the absence of inhibition at 500 mM); Minimum inhibitory concentration (Native BPL3): NI (the absence of inhibition at 500 mM)

Q: Which Minimum inhibitory concentration (rD2BPL3) does the source give for `CC(=O)N[C@H]1C(O)O[C@H](CO)[C@H](O)[C@@H]1O` (stereo partly drawn) [N-acetyl-d-galactosamine] here?
A: 31.25 mM (≈ 6.91 mg/mL)

Q: And the “Concentration at which hemagglutination activity of rBPL3 was inhibited” value (rD2BPL3)?
A: 62.5 mM

Q: And the Minimum inhibitory concentration (Native BPL3)?
A: 62.5 mM (≈ 13.8 mg/mL)

Q: With `OC[C@H]1O[C@@H](O[C@H]2[C@H](O)[C@@H](O)[C@H](O)O[C@@H]2CO)[C@H](O)[C@@H](O)[C@H]1O` [β-Lactose] as the molecule, how does the Minimum inhibitory concentration (rD2BPL3) read?
A: NI (the absence of inhibition at 500 mM)

Q: And the Minimum inhibitory concentration (Native BPL3)?
A: NI (the absence of inhibition at 500 mM)

Q: With `C[C@@H]1OC(O)[C@@H](O)[C@H](O)[C@@H]1O` (stereo partly drawn) [1-Fucose] as the molecule, how does the Minimum inhibitory concentration (rD2BPL3) read?
A: NI (the absence of inhibition at 500 mM)

Q: And the Minimum inhibitory concentration (Native BPL3)?
A: NI (the absence of inhibition at 500 mM)

Q: Which results are given for `OC[C@H]1O[C@H](O[C@H]2[C@H](O)[C@@H](O)[C@H](O)O[C@@H]2CO)[C@H](O)[C@@H](O)[C@@H]1O` [d-Maltose]?
A: Minimum inhibitory concentration (rD2BPL3): NI (the absence of inhibition at 500 mM); Minimum inhibitory concentration (Native BPL3): NI (the absence of inhibition at 500 mM)

Q: Which Minimum inhibitory concentration (inhibition of hemagglutination activity) (Fetuin) does the source give for “Native BPL3 (Bryopsis plumosa lectin 3 derived from Bryopsis plumosa)” here?
A: 19.5 µg/mL

B1: rD2BPL3 (recombinant BPL3 lectin obtained by the gene having the repeating structure) (protein, part only; not given: spacer and vector tag, not shown: small tags and cut ends)
chain, part: TDVGSVQVRGLGDRSSCPVKPWTTAQTSAREKVVSVKFDIPYSSTPKVALSLSGMDMDTKYNTRINTSVENLTNEGFDLKVGVWCNTYAYMLDVTYVVVPAPYAAGTDVGSVQVRGLGDRSSCPVKPWTTAQTSAREKVVSVKFDIPYSSTPKVALSLSGMDMDTKYNTRINTSVENLTNEGFDLKVGVWCNTYAYMLDVTYVVVPAPYAAG
Q: With B1 as the molecule, how does the Minimum inhibitory concentration (inhibition of hemagglutination activity) (Fetuin) read?
A: 4.88 µg/mL

B2: Native BPL3: BPL3 (Bryopsis plumosa lectin) derived from bryopsis plumosa, comparative target (protein)
chain: TDVGSVQVRGLGDRSSCPVKPWTTAQTSAREKVVSVKFDIPYSSTPKVALSLSGMDMDTKYNTRINTSVENLTNEGFDLKVGVWCNTYAYMLDVTYVVVPAPYAAG
modifications: bryopsis plumose-derived BPL3 gene
notes: BPL3 (Bryopsis plumosa lectin) derived from bryopsis plumosa, comparative target
Q: With B2 as the molecule, how does the “Glycan giving a strong signal” value [1, 2] read?
A: strong signal for a glycan of Gal-β-1,3-GaINAc-α-Sp

Q: What about the “Number of glycans reacted with, of 100 glycans” value [1, 2] of the same molecule?
A: 5

Q: What about the “Binding to α-Man-Sp” value ([1]; glycan array) of the same molecule?
A: specifically bound

Q: And the “Binding to β-GlcNAc-Sp” value ([1]; glycan array)?
A: does not react

B3: Fetuin (protein, UniProt P12763 19-359, looked up)
Alpha-2-HS-glycoprotein: IPLDPVAGYKEPACDDPDTEQAALAAVDYINKHLPRGYKHTLNQIDSVKVWPRRPTGEVYDIEIDTLETTCHVLDPTPLANCSVRQQTQHAVEGDCDIHVLKQDGQFSVLFTKCDSSPDSAEDVRKLCPDCPLLAPLNDSRVVHAVEVALATFNAESNGSYLQLVEISRAQFVPLPVSVSVEFAVAATDCIAKEVVDPTKCNLLAEKQYGFCKGSVIQKALGGEDVRVTCTLFQTQPVIPQPQPDGAEAEAPSAVPDAAGPTPSAAGPPVASVVVGPSVVAVPLPLHRAHYDLRHTFSGVASVESSSGEAFHVGKTPIVGQPSIPGGPVRLCPGRIRYFKI
Q: For B3, which Minimum inhibitory concentration (rD2BPL3; concentration in μg/mL) is on record?
A: 4.88^§ μg/mL

Q: What about the Minimum inhibitory concentration (Native BPL3; concentration in μg/mL) of the same molecule?
A: 19.53^§ μg/mL
